Data reported in patent US8815891B2, “Tricyclic derivative or pharmaceutically acceptable salts thereof, preparation method thereof, and pharmaceutical composition containing the same” (Je Il Pharmaceutical Co., Ltd., priority 2008, dated 2014).
pIC50: −log10 of the molar value. Where a name gives a salt, the structure may show the parent alone. Read-outs that look alike come from different tables or passages of the source.

Columns and labels:
MCF-7 Cell line = test: Cell growth inhibition of cancer cell lines (SRB assay), MCF-7; type: cell-based; conditions: for SN-38 PF50 / Temozolomide PF50: 2 μM compound; for GI50: Homo sapiens, MCF7, 72 hours
Description: (§1) The tests on cell growth inhibitory activity were performed with respect to A549 (US, ATCC), SK-OV-3 (Korea Research Institute of Chemical Technology; KRICT), HT-29 (US, ATCC), MCF-7 cell (US, ATCC), using Sulforhodamin-B <SRB> Assay (1989, US National Cancer Institute (NCI)) which was developed to measure the in vitro anti-cancer activity of the drug. […] The samples of the compounds of the Examples according to the present invention were used for the tests, and before the tests, the samples were dissolved in dimethylsulfoxide and diluted with the culture medium (RPMI 1640) to be used. The final concentration of the sample was varied in the range of 0.3˜100 μM. After the culture medium was removed from the 96 well plates, the diluted sample solution was added by 100 μl, and cultured in 37° C., 5% CO2 culture medium for 72 hours. The time zero (Tz) plates were collected at the time point of adding the sample. Upon completing the culture, the medium was removed from each well along with Tz plate, then cold 10% trichloroacetic acid (TCA) was added by 100 μl per well. The wells were left at 4° C. for 1 hour, so that the cells were fixed into the bottom of the plates. After the cells were fixed, the plates were rinsed with water five to six times to remove the remaining trichloroacetic acid solution, and moisture was completely dried at room temperature. The cells were dyed for 30 minutes by adding the dye solution in which 0.4% sulforhodamine-B was dissolved in 1% acetic acid solution, by 100 μl per dried wells. The above was rinsed again with 1% acetic acid solution five to six times to ensure that sulforhodamine-B which had not attached to the cells was removed. The plates were again dried at room temperature. 100 μl of 10 mM tris-buffer was then added to dissolve the dye, and the optical density (OD) at 520 nm was measured with the microplate reader. GI50 of the sample regarding cancer cell was calculated as explained below. Time zero (Tz), control value (C) and test value (T) were obtained, in which Tz corresponds to OD value of time at which the sample is applied and culture is started, C corresponds to OD value of the well which is cultured without treatment with the sample, and T corresponds to OD value of the well which is treated with the sample and then cultured. The degree of cell growth inhibition of the sample was measured using: If […] [Mathematical Formula 1]
(§2) Further, the ability of Examples 2, 42, 49, 52, 72, 74, 101 to increase growth inhibition effect of temozolomide and SN-38 at 2 μM was determined.

PARP-1 enzyme [1] = target: PARP-1 enzyme (Homo sapiens (Human), UniProt P09874); test: Poly(ADP-ribose)polymerase [PARP-1] enzyme inhibitory activity (Trevigen PARP Assay kit); type: biochemical; conditions: read-out: PARP-1 Inhibitory activity IC50
PARP-1 enzyme (Homo sapiens (Human), UniProt P09874), sequence (P09874 whole entry): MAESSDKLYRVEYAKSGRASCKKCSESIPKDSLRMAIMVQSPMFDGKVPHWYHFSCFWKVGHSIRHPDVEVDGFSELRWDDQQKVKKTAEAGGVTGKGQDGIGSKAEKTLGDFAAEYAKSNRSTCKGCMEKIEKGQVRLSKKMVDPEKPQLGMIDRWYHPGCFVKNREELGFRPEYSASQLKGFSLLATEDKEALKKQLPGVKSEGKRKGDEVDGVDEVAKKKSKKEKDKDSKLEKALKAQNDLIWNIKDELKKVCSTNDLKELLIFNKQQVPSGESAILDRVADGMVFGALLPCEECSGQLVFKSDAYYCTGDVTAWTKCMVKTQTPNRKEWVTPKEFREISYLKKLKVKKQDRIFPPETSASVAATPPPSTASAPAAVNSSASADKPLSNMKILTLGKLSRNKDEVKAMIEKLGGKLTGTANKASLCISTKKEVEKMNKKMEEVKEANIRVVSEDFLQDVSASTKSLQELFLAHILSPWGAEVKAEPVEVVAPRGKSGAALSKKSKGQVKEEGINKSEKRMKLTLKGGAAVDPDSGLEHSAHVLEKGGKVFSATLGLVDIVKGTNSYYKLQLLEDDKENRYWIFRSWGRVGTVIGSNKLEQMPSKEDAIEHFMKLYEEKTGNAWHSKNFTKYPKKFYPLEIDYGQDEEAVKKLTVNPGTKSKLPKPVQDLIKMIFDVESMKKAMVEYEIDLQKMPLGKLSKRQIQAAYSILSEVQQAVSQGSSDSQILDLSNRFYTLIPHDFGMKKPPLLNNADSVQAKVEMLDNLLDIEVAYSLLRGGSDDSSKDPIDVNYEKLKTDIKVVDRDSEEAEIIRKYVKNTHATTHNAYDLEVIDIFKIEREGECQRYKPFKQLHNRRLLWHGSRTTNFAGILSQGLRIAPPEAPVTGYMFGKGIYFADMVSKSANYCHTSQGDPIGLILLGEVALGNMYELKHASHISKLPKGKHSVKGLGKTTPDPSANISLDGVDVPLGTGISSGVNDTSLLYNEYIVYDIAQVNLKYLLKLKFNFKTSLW
In short: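 On histone-coated plates, PARP-1 (0.12 unit/well) reacted with compound for 30 min at 25 °C in a 2× cocktail of 1.95 mM NAD+, 50 μM biotinylated NAD+ and activated DNA (Tris pH 8.0, 25 mM MgCl2). Biotin-ribosylated histone was detected with streptavidin-HRP and TACS-Sapphire substrate, stopped with HCl and read at 450 nm.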

SK-OV-3 Cell line = test: Cell growth inhibition of cancer cell lines (SRB assay), SK-OV-3; type: cell-based; conditions: for SN-38 PF50 / Temozolomide PF50: 2 μM compound; for GI50: Homo sapiens, 72 hours
Description: as §1, §2

PARP-1 enzyme [2] = target: PARP-1 enzyme (Cricetulus griseus (Chinese hamster) (Cricetulus barabensis griseus), UniProt Q9R152); test: Intracellular PARP inhibitory activity (NAD(P)H released by MMS-treated CHO-K1 cells); type: cell-based
PARP-1 enzyme (Cricetulus griseus (Chinese hamster) (Cricetulus barabensis griseus), UniProt Q9R152), sequence (Q9R152 whole entry): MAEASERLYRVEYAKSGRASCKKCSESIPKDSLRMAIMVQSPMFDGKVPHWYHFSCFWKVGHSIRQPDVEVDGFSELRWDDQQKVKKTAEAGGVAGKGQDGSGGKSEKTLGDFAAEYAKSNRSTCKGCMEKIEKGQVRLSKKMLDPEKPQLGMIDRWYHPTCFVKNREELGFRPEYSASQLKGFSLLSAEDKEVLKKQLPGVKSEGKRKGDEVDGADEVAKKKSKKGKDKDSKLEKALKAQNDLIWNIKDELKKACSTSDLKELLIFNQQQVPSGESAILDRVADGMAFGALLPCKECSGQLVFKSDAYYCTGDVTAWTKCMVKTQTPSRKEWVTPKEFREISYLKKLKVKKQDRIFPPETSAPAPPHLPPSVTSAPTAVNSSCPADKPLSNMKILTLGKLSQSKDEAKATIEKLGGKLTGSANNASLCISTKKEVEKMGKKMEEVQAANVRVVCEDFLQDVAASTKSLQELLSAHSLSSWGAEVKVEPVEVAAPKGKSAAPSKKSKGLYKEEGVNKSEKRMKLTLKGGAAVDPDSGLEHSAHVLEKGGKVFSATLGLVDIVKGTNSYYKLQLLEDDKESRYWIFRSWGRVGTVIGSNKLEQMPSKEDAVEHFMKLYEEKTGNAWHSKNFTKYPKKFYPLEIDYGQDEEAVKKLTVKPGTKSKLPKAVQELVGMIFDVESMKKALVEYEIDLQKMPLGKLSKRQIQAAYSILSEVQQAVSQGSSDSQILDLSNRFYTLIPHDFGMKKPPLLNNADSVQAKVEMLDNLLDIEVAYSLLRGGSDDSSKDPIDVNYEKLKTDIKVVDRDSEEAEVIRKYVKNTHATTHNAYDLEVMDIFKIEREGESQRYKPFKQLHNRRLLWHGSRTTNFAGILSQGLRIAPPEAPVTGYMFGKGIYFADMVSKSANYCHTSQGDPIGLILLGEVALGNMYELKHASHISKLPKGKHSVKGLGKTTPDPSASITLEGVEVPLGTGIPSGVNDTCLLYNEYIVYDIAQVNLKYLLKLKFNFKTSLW
Description: In order to verify the ability of the compounds of the present invention to inhibit the PARP-1 enzyme activity, the amount of NAD(P)H accumulated on cell culture medium was measured.
The Chinese hamster ovary cells (CHO-K1) were cultured in RPMI1640 culture medium containing 10% fetal bovine serum (FBS). The cultured CHO-K1 cells were seeded into 96 well plate by 2.9×10^3 cells/well, and cultured for 16 hours under culture condition of 37° C., 5% CO2. After the culture, the cells were treated with the compounds of the Examples at varying concentrations, and cultured at 37° C. for 2 hours. […] The amount of […] released to the culture medium 3, 4, 5 hours after the treatment with MMS was quantified at 450 nm using Wallac EnVision™ (PerkinElmer Oy, Turku, Finland). The transference numbers of the compounds at varying concentrations according to the present invention are the average values obtained from four wells, and the results were calculated using regression analysis.
The Chinese hamster ovary cells (CHO-K1) were treated with the compounds at varying concentration according to the present invention, and the amount of NAD(P)H released into the culture medium 4 hours after the MMS treatment was quantified.

HT-29 Cell line = test: Cell growth inhibition of cancer cell lines (SRB assay), HT-29; type: cell-based; conditions: for SN-38 PF50 / Temozolomide PF50: 2 μM compound; for GI50: Homo sapiens, 72 hours
Description: as §1, §2

A549 cell line = test: Cell growth inhibition of cancer cell lines (SRB assay), A549; type: cell-based; conditions: for SN-38 PF50 / Temozolomide PF50: 2 μM compound; for SN-38 PF50: GI50 SN-38 alone / GI50 with compound; for Temozolomide PF50: GI50 temozolomide alone / GI50 with compound; for GI50: Homo sapiens, 72 hours
Description: as §1, §2

[3] = PARP-1 enzyme, histone ribosylation, 450 nm

Row | GI50 (MCF-7 Cell line) [µM] | pIC50 (PARP-1 enzyme [1]; [3]) | GI50 (SK-OV-3 Cell line) [µM] | pIC50 (PARP-1 enzyme [2]) | GI50 (HT-29 Cell line) [µM] | GI50 (A549 cell line) [µM] | Compound | SN-38 PF50 (MCF-7 Cell line) | Temozolomide PF50 (MCF-7 Cell line) | SN-38 PF50 (SK-OV-3 Cell line) | Temozolomide PF50 (SK-OV-3 Cell line) | SN-38 PF50 (HT-29 Cell line) | Temozolomide PF50 (HT-29 Cell line) | SN-38 PF50 (A549 cell line) | Temozolomide PF50 (A549 cell line) | pIC50 (PARP-1 enzyme [1])
1 | 11 | 6.25 | 19 | 5.71 | 20 | 55 | CCOc1cc(CN2CCOCC2)cc2[nH]c(=O)c3c(c12)NCCC3 [Example 101, 10-Ethoxy-8-(morpholinomethyl)-1,2,3,4-tetrahydrobenzo[h][1,6]naphthyridine-5(6H)-one dihydrochloride] | 3.0 | 5.9 | 2.8 | >3.9 | 4.0 | >1.9 | 2.6 | 3.2 | –
2 | 51 | 6.22 | 50 | 6.04 | 70 | 59 | COc1cccc2[nH]c(=O)c3c(c12)NCCC3.Cl [Example 2, 10-Methoxy-1,2,3,4-tetrahydrobenzo[h][1,6]naphthyridine-5(6H)-one hydrochloride] | 1.4 | 1.7 | 1.2 | >3.2 | 1.4 | >1.5 | 2.2 | 2.4 | –

Row | Compound | GI50 (MCF-7 Cell line) [µM] | pIC50 (PARP-1 enzyme [1]; [3]) | GI50 (SK-OV-3 Cell line) [µM] | pIC50 (PARP-1 enzyme [2]) | GI50 (HT-29 Cell line) [µM] | GI50 (A549 cell line) [µM] | SN-38 PF50 (MCF-7 Cell line) | Temozolomide PF50 (MCF-7 Cell line) | SN-38 PF50 (SK-OV-3 Cell line) | Temozolomide PF50 (SK-OV-3 Cell line) | SN-38 PF50 (HT-29 Cell line) | Temozolomide PF50 (HT-29 Cell line) | SN-38 PF50 (A549 cell line) | Temozolomide PF50 (A549 cell line) | pIC50 (PARP-1 enzyme [1])
3 | COc1cc(CN(C)C)cc2[nH]c(=O)c3c(c12)NCCC3 [Example 72, 8-[(Dimethylamino)methyl]-10-methoxy-1,2,3,4-tetrahydrobenzo[h][1,6]naphthyridine-5(6H)-one dihydrochloride] | 54 | – | > 100 | 7.05 | > 100 | > 100 | 2.6 | 1.7 | 1.8 | >10.2 | 2.2 | >5.2 | 3.8 | 3.4 | 7.10
